For orientation: Kd means a measure of binding affinity in units of concentration. A high value points to a looser complex. In general, Ki refers to a measure of affinity in units of concentration, obtained from inhibition or displacement. A word on the IC50: it is the concentration that gives 50% inhibition. High values mean lower potency, low ones higher potency.

SMILES strings stand for the structures.

Results on two compounds are retold here after ChEMBL document CHEMBL5212743, “Selectivity Literature for EUbOPEN Chemogenomics Library wave 3” (2023).

The target in experiment [1] is MAP kinase-interacting serine/threonine-protein kinase 2 (Homo sapiens, UniProt Q9HBH9). Put plainly: Selectivity interaction (KinomeScan (DiscoverX, competition-binding assay)) EUB0000637a MKNK2.
The target in experiment [2] is Vascular endothelial growth factor receptor 1 (Homo sapiens, UniProt P17948). Put plainly: Selectivity interaction (KinomeScan (DiscoverX, competition-binding assay)) EUB0000637a FLT1.
The target of experiment [3] is Dual specificity protein kinase CLK1 (Homo sapiens, UniProt P49759). The experiment can be described thus: Selectivity interaction (KinomeScan (DiscoverX, competition-binding assay)) EUB0000637a CLK1.
For experiment [4], the target named is T1, Gamma-aminobutyric acid receptor subunit alpha-1 (Homo sapiens, UniProt P14867).
T1 sequence (P14867 whole entry): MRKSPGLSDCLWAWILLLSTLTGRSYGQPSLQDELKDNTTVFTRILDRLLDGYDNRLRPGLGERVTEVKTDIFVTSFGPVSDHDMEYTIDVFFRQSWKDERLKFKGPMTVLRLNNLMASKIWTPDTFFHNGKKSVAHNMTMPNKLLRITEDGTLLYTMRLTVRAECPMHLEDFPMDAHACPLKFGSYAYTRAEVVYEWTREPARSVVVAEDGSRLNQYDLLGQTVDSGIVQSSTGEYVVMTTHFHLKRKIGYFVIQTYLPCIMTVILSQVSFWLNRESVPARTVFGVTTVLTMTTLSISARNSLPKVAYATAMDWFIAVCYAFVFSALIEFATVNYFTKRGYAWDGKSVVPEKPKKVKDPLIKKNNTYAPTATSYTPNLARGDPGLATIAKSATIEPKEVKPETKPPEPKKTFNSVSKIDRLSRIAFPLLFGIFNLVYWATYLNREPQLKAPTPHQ
The experiment can be described thus: Selectivity interaction (GPCR panel (PDSP screen)) EUB0000703a GABRA1.

The target of experiment [5] is Sodium-dependent noradrenaline transporter (Homo sapiens, UniProt P23975). Put plainly: Selectivity interaction (GPCR panel (PDSP screen)) EUB0000703a SLC6A2.
The target in experiment [6] is Epithelial discoidin domain-containing receptor 1 (Homo sapiens, UniProt Q08345). Put plainly: Selectivity interaction (KinomeScan (DiscoverX)) EUB0000703a DDR1. The settings on record: at 1 µM.
The target of experiment [7] is Kappa-type opioid receptor (Homo sapiens, UniProt P41145). The experiment can be described thus: Selectivity interaction (GPCR panel (PDSP screen)) EUB0000703a OPRK1.
The test system of experiment [8] is Serine/threonine-protein kinase B-raf (Homo sapiens), P15056 [V600E]. The experiment can be described thus: Selectivity interaction (KinomeScan (DiscoverX)) EUB0000703a BRAF. Particulars: at 1 µM.
The target in experiment [9] is Discoidin domain-containing receptor 2 (Homo sapiens) (UniProt Q16832). The experiment can be described thus: Selectivity interaction (KinomeScan (DiscoverX)) EUB0000703a DDR2. Particulars: at 1 µM.
In experiment [10] the target is Tyrosine-protein kinase Lyn (Homo sapiens, UniProt P07948). Put plainly: Selectivity interaction (NanoBRET assay (HEK293T cells)) EUB0000703a LYN.
The next experiment has as its target D(2) dopamine receptor (Homo sapiens, UniProt P14416). The experiment can be described thus: Selectivity interaction (GPCR panel (PDSP screen)) EUB0000703a DRD2.
The target of experiment [11] is Phosphatidylinositol 4,5-bisphosphate 3-kinase catalytic subunit alpha isoform (Homo sapiens, UniProt P42336). Put plainly: Selectivity interaction (KinomeScan (DiscoverX)) EUB0000703a PIK3CA. The settings on record: at 1 µM.
Phosphatidylinositol 4,5-bisphosphate 3-kinase catalytic subunit alpha isoform, sequence (P42336 whole entry, canonical isoform): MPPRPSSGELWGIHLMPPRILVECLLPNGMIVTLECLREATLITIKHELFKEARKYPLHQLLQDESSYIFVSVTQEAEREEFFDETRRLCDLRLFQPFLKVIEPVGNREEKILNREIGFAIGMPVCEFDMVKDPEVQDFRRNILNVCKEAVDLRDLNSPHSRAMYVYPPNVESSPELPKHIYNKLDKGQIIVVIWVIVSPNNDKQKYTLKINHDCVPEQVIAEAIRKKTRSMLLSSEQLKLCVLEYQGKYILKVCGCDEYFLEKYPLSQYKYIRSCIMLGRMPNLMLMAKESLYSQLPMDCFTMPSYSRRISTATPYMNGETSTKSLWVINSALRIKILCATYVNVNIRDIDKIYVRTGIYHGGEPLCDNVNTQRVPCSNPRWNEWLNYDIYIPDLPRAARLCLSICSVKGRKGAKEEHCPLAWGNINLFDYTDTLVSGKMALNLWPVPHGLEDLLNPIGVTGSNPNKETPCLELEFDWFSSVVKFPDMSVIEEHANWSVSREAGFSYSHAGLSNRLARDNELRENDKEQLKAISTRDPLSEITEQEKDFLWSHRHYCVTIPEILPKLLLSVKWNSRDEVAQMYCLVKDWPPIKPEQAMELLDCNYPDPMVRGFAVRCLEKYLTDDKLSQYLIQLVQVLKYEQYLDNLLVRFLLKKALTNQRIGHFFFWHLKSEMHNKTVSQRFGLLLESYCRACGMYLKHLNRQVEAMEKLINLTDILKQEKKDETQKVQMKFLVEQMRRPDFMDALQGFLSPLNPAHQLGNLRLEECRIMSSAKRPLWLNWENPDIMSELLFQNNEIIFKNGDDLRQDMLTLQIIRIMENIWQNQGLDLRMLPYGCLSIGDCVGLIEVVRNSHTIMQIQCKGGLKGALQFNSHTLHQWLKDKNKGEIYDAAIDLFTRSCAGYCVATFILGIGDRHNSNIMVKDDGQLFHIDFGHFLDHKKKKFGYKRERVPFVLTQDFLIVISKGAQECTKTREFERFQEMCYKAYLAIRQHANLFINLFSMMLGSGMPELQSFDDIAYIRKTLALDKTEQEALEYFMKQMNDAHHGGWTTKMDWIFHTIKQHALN

MAP kinase-interacting serine/threonine-protein kinase 2, sequence (Q9HBH9 whole entry): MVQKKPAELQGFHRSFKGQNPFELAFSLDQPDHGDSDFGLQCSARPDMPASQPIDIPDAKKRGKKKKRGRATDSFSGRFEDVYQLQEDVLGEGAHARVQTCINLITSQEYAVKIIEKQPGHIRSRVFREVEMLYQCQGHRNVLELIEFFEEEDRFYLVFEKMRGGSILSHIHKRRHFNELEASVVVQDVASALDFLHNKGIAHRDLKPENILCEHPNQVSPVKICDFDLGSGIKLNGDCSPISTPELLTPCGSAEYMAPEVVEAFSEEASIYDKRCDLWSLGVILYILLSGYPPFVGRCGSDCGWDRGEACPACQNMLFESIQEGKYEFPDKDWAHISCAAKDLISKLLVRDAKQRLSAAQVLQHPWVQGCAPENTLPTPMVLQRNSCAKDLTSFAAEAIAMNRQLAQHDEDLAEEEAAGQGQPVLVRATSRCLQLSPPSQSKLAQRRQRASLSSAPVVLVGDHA
Discoidin domain-containing receptor 2 (Homo sapiens), sequence (Q16832 whole entry, the tested form may be a part): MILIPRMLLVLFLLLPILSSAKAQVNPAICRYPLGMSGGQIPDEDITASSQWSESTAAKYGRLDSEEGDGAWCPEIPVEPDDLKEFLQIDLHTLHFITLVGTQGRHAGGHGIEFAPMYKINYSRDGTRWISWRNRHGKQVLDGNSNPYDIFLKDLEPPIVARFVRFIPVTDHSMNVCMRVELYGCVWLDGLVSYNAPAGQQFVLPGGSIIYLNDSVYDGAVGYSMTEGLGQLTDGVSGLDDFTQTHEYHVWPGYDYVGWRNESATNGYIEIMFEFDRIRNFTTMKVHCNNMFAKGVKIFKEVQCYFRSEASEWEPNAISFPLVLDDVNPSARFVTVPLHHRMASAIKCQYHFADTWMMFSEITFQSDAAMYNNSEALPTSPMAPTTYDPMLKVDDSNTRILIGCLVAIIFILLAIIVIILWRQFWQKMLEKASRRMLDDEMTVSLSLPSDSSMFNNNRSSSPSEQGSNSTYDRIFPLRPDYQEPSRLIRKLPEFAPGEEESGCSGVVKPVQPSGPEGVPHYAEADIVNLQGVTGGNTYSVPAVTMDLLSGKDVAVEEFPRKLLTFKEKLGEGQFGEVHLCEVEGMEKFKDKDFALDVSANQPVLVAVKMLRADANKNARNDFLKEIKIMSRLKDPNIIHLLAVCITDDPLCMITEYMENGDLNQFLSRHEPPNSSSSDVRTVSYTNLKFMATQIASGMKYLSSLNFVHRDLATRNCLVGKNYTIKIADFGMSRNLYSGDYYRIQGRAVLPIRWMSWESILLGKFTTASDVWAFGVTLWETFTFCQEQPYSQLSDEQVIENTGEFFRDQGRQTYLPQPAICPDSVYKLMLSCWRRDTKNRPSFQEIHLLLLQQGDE
D(2) dopamine receptor, sequence (P14416 whole entry, canonical isoform): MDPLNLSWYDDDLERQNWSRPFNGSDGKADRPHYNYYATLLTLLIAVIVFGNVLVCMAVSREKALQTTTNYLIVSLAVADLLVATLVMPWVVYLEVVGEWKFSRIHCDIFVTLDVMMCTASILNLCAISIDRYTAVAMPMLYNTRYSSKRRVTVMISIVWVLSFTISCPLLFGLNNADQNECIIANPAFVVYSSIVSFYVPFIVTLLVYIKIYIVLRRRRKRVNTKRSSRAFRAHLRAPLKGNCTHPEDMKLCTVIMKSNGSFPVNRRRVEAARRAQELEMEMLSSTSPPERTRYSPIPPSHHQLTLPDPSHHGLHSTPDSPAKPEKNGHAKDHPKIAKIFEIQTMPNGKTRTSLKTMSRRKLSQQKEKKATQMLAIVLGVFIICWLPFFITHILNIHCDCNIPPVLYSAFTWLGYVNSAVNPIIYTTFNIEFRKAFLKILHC
Dual specificity protein kinase CLK1, sequence (P49759 whole entry): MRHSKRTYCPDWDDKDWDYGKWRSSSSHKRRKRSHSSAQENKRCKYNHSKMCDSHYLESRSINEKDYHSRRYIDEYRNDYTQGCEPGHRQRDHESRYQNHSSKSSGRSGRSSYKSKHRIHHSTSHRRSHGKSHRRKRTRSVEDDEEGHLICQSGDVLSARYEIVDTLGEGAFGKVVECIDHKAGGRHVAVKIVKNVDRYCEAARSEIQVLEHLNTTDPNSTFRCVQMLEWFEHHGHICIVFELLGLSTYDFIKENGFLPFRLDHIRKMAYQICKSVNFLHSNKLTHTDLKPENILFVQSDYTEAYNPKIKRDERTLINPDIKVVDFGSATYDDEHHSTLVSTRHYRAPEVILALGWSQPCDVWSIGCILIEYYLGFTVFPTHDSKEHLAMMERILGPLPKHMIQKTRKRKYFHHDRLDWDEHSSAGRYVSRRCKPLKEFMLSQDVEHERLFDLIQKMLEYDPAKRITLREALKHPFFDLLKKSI
Epithelial discoidin domain-containing receptor 1, sequence (Q08345 whole entry, the tested form may be a part): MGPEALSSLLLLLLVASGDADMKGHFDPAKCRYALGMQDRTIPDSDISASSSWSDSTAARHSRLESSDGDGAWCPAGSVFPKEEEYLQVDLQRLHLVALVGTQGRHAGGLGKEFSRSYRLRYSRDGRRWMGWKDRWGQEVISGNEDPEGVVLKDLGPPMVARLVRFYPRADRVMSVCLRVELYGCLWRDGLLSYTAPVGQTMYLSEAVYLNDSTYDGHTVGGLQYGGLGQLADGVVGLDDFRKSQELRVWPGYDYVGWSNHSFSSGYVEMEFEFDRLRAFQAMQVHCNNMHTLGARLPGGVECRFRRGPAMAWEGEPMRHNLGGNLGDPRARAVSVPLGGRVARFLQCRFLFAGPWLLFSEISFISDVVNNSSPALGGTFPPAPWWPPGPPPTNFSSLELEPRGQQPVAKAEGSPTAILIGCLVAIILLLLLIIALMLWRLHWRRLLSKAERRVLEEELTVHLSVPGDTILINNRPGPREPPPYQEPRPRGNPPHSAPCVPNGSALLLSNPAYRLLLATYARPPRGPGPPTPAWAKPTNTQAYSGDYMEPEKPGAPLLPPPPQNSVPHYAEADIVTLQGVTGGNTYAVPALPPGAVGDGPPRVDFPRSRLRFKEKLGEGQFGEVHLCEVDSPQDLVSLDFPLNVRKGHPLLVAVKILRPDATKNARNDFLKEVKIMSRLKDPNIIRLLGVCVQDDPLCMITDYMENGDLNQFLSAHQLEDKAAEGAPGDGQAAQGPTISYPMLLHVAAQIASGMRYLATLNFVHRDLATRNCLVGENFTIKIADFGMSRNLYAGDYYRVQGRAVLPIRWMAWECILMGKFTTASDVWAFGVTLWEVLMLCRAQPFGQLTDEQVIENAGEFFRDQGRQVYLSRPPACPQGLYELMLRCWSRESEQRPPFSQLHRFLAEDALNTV
Tyrosine-protein kinase Lyn, sequence (P07948 whole entry): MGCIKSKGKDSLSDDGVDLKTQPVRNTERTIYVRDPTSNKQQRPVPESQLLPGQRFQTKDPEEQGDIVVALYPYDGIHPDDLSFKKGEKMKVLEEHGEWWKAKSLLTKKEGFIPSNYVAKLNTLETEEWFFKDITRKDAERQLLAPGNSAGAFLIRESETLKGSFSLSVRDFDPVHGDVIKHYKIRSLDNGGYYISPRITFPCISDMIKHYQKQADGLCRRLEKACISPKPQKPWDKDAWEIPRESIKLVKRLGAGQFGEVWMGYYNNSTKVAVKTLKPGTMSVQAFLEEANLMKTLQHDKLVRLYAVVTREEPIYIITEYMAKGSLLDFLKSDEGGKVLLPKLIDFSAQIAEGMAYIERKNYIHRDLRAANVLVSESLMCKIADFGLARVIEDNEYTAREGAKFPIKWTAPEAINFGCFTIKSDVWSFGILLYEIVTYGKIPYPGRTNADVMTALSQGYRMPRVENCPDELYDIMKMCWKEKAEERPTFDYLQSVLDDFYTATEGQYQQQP

As for `NC(=O)c1ccc2nc(-c3ccc(C4(N)CCC4)cc3)c(-c3ccccc3)n2n1` [BAY-1125976], the Kd came to 0.33 µM in experiment [1], 0.21 µM in experiment [2] and 0.31 µM in experiment [3].
With `Cc1cc(NC(=O)c2cccc(S(F)(F)(F)(F)F)c2)cc(-n2ccn3nc(-c4cccnc4)cc23)c1` [BAY-309], the Ki in experiment [4] was 10.9 µM; in experiment [5], more than 10 µM; in [7], more than 10 µM; on D(2) dopamine receptor it was more than 10 µM. Moreover, the % of control was found to be 0% in [6], 24% in experiment [8], 18% in [9] and 23% in experiment [11]. This compound came in with a concentration for half-maximal inhibition (IC50) in experiment [10] of 7 µM.
